Laboratory results reported in BigSolDB 2.1.

C=CC1=C(C(=O)O)N2C(=O)[C@@H](NC(=O)/C(=N\OCC(=O)O)c3csc(N)n3)[C@H]2SC1.O.O.O
solubility (mole fraction)
Details	278.15 K	283.15 K	288.15 K	293.15 K	298.15 K	303.15 K	308.15 K	313.15 K	318.15 K	323.15 K
in acetone	0.00223	0.00276	0.00308	0.00346	0.004	0.0044	0.00518	0.00581	0.00701	0.00854
in ethanol	0.00189	0.0021	0.00246	0.00285	0.00321	0.0037	0.00415	0.00478	0.00536	0.00632
in ethyl acetate	0.000678	0.000747	0.000971	0.00116	0.00139	0.00159	0.00185	0.00226	0.00257	0.00334
in isopropanol	0.000918	0.00105	0.00128	0.00148	0.00178	0.00195	0.0023	0.00255	0.00291	0.0035
in n-butanol	0.000983	0.00102	0.00122	0.00151	0.00172	0.002	0.00249	0.00293	0.00343	0.00437
in n-pentanol	0.000403	0.00051	0.000602	0.000779	0.00101	0.00136	0.00152	0.00191	0.00255	0.003
in sec-butanol	0.000899	0.000995	0.00119	0.00143	0.0015	0.00173	0.00211	0.00234	0.00276	0.00316
